According to the NIST ThermoML archive (doi:10.1021/je100757w):
Values joined by “and” are separate entries in the source; they are usually repeats but may differ in a detail not shown here. Identical values can stand only once. ± gives the expanded uncertainty stated by the source.

Assay: xn = mol fraction of the nth substance listed
Settings: for surface tension liquid-gas: Ring tensiometer; for mass density: 101.3 kPa, Liquid

## COCCOCCOCCOC [2,5,8,11-tetraoxadodecane] + O
298.15 K, x1 = 0.0012
  surface tension liquid-gas: 53.35 ± 0.89 mN/m
298.15 K, x1 = 0.0024
  surface tension liquid-gas: 51.27 ± 0.87 mN/m
298.15 K, x1 = 0.0029
  surface tension liquid-gas: 49.07 ± 0.85 mN/m
298.15 K, x1 = 0.0036
  surface tension liquid-gas: 48.59 ± 0.84 mN/m
298.15 K, x1 = 0.0043
  surface tension liquid-gas: 47.6 ± 0.83 mN/m
298.15 K, x1 = 0.0206
  surface tension liquid-gas: 40.6 ± 0.78 mN/m
298.15 K, x1 = 0.0375
  surface tension liquid-gas: 38.88 ± 0.77 mN/m
298.15 K, x1 = 0.0695
  surface tension liquid-gas: 36.2 ± 0.75 mN/m
298.15 K, x1 = 0.0905
  surface tension liquid-gas: 33.99 ± 0.74 mN/m
298.15 K, x1 = 0.1223
  surface tension liquid-gas: 33.06 ± 0.74 mN/m
298.15 K, x1 = 0.163
  surface tension liquid-gas: 32.87 ± 0.74 mN/m
298.15 K, x1 = 0.2911
  surface tension liquid-gas: 32.23 ± 0.74 mN/m
298.15 K, x1 = 0.3517
  surface tension liquid-gas: 31.66 ± 0.73 mN/m
298.15 K, x1 = 0.4658
  surface tension liquid-gas: 31.16 ± 0.74 mN/m
298.15 K, x1 = 0.583
  surface tension liquid-gas: 30.5 ± 0.7 mN/m
298.15 K, x1 = 0.659
  surface tension liquid-gas: 30.09 ± 0.74 mN/m
298.15 K, x1 = 0.7279
  surface tension liquid-gas: 29.54 ± 0.75 mN/m
298.15 K, x1 = 0.821
  surface tension liquid-gas: 29.05 ± 0.75 mN/m
298.15 K, x1 = 0.8823
  surface tension liquid-gas: 28.52 ± 0.75 mN/m
298.15 K, x1 = 0.9461
  surface tension liquid-gas: 28.04 ± 0.75 mN/m
298.15 K, x1 = 1
  surface tension liquid-gas: 27.56 ± 0.75 mN/m
  mass density: 981.23 ± 1.1 kg/m3
298.15 K, x1 = 0.0173
  mass density: 1006.22 ± 0.27 kg/m3
298.15 K, x1 = 0.0914
  mass density: 1019.65 ± 0.32 kg/m3
298.15 K, x1 = 0.1739
  mass density: 1017.24 ± 0.34 kg/m3
298.15 K, x1 = 0.2731
  mass density: 1009.97 ± 0.36 kg/m3
298.15 K, x1 = 0.3468
  mass density: 1004.7 ± 0.38 kg/m3
298.15 K, x1 = 0.4515
  mass density: 998.25 ± 0.44 kg/m3
298.15 K, x1 = 0.5727
  mass density: 992.4 ± 0.55 kg/m3
298.15 K, x1 = 0.6451
  mass density: 989.7 ± 0.62 kg/m3
298.15 K, x1 = 0.7766
  mass density: 985.98 ± 0.77 kg/m3
298.15 K, x1 = 0.8679
  mass density: 984.02 ± 0.89 kg/m3
298.15 K, x1 = 0.8977
  mass density: 983.45 ± 0.93 kg/m3
298.15 K, x1 = 0.9699
  mass density: 981.95 ± 1 kg/m3
308.15 K, x1 = 0.0009
  surface tension liquid-gas: 53.01 ± 0.87 mN/m
308.15 K, x1 = 0.0017
  surface tension liquid-gas: 50.04 ± 0.85 mN/m
308.15 K, x1 = 0.0026
  surface tension liquid-gas: 47.96 ± 0.84 mN/m
308.15 K, x1 = 0.0039
  surface tension liquid-gas: 45.41 ± 0.82 mN/m
308.15 K, x1 = 0.0109
  surface tension liquid-gas: 41.72 ± 0.79 mN/m
308.15 K, x1 = 0.0218
  surface tension liquid-gas: 40.14 ± 0.78 mN/m
308.15 K, x1 = 0.0353
  surface tension liquid-gas: 38.28 ± 0.77 mN/m
308.15 K, x1 = 0.0882
  surface tension liquid-gas: 36.04 ± 0.75 mN/m
308.15 K, x1 = 0.1214
  surface tension liquid-gas: 34.06 ± 0.74 mN/m
308.15 K, x1 = 0.1767
  surface tension liquid-gas: 33.08 ± 0.74 mN/m
308.15 K, x1 = 0.2497
  surface tension liquid-gas: 32.48 ± 0.74 mN/m and 31.82 ± 0.73 mN/m
308.15 K, x1 = 0.34
  surface tension liquid-gas: 31.44 ± 0.73 mN/m
308.15 K, x1 = 0.4141
  surface tension liquid-gas: 30.89 ± 0.73 mN/m
308.15 K, x1 = 0.5272
  surface tension liquid-gas: 30.74 ± 0.74 mN/m
308.15 K, x1 = 0.5837
  surface tension liquid-gas: 30.15 ± 0.74 mN/m
308.15 K, x1 = 0.7176
  surface tension liquid-gas: 29.76 ± 0.75 mN/m
308.15 K, x1 = 0.8234
  surface tension liquid-gas: 29.38 ± 0.75 mN/m
308.15 K, x1 = 0.9458
  surface tension liquid-gas: 28.74 ± 0.76 mN/m
308.15 K, x1 = 1
  surface tension liquid-gas: 28.48 ± 0.76 mN/m
  mass density: 971.71 ± 1.1 kg/m3
308.15 K, x1 = 0.0173
  mass density: 1004.32 ± 0.27 kg/m3
308.15 K, x1 = 0.0914
  mass density: 1016.26 ± 0.31 kg/m3
308.15 K, x1 = 0.1739
  mass density: 1010.56 ± 0.32 kg/m3
308.15 K, x1 = 0.2731
  mass density: 1001.13 ± 0.33 kg/m3
308.15 K, x1 = 0.3468
  mass density: 995.27 ± 0.38 kg/m3
308.15 K, x1 = 0.4515
  mass density: 988.66 ± 0.46 kg/m3
308.15 K, x1 = 0.5727
  mass density: 982.92 ± 0.57 kg/m3
308.15 K, x1 = 0.6451
  mass density: 980.17 ± 0.65 kg/m3
308.15 K, x1 = 0.7766
  mass density: 976.39 ± 0.8 kg/m3
308.15 K, x1 = 0.8679
  mass density: 974.51 ± 0.91 kg/m3
308.15 K, x1 = 0.8977
  mass density: 973.95 ± 0.95 kg/m3
308.15 K, x1 = 0.9699
  mass density: 972.46 ± 1.1 kg/m3
318.15 K, x1 = 0.0014
  surface tension liquid-gas: 51.81 ± 0.87 mN/m
318.15 K, x1 = 0.0021
  surface tension liquid-gas: 47.47 ± 0.84 mN/m
318.15 K, x1 = 0.0028
  surface tension liquid-gas: 46.1 ± 0.84 mN/m
318.15 K, x1 = 0.0039
  surface tension liquid-gas: 44.63 ± 0.81 mN/m
318.15 K, x1 = 0.01
  surface tension liquid-gas: 41.37 ± 0.79 mN/m
318.15 K, x1 = 0.0212
  surface tension liquid-gas: 39.06 ± 0.77 mN/m
318.15 K, x1 = 0.034
  surface tension liquid-gas: 37.85 ± 0.76 mN/m
318.15 K, x1 = 0.0543
  surface tension liquid-gas: 35.26 ± 0.75 mN/m
318.15 K, x1 = 0.0791
  surface tension liquid-gas: 32.67 ± 0.74 mN/m
318.15 K, x1 = 0.0849
  surface tension liquid-gas: 32.5 ± 0.73 mN/m
318.15 K, x1 = 0.0917
  surface tension liquid-gas: 32.42 ± 0.73 mN/m
318.15 K, x1 = 0.122
  surface tension liquid-gas: 32.27 ± 0.73 mN/m
318.15 K, x1 = 0.1848
  surface tension liquid-gas: 32.14 ± 0.73 mN/m
318.15 K, x1 = 0.2728
  surface tension liquid-gas: 31.26 ± 0.73 mN/m
318.15 K, x1 = 0.3289
  surface tension liquid-gas: 31.05 ± 0.73 mN/m
318.15 K, x1 = 0.3776
  surface tension liquid-gas: 30.83 ± 0.73 mN/m
318.15 K, x1 = 0.4688
  surface tension liquid-gas: 30.3 ± 0.73 mN/m
318.15 K, x1 = 0.6611
  surface tension liquid-gas: 29.59 ± 0.74 mN/m
318.15 K, x1 = 0.7234
  surface tension liquid-gas: 29.4 ± 0.74 mN/m
318.15 K, x1 = 0.8102
  surface tension liquid-gas: 28.99 ± 0.75 mN/m
318.15 K, x1 = 0.8562
  surface tension liquid-gas: 28.68 ± 0.75 mN/m
318.15 K, x1 = 0.8915
  surface tension liquid-gas: 28.3 ± 0.75 mN/m
318.15 K, x1 = 1
  surface tension liquid-gas: 27.83 ± 0.76 mN/m
  mass density: 962.19 ± 1.1 kg/m3
318.15 K, x1 = 0.0173
  mass density: 998.53 ± 0.26 kg/m3
318.15 K, x1 = 0.0914
  mass density: 1007.41 ± 0.29 kg/m3
318.15 K, x1 = 0.1739
  mass density: 1001.45 ± 0.29 kg/m3
318.15 K, x1 = 0.2731
  mass density: 992.1 ± 0.35 kg/m3
318.15 K, x1 = 0.3468
  mass density: 986.06 ± 0.4 kg/m3
318.15 K, x1 = 0.4515
  mass density: 979.25 ± 0.49 kg/m3
318.15 K, x1 = 0.5727
  mass density: 973.34 ± 0.6 kg/m3
318.15 K, x1 = 0.6451
  mass density: 970.59 ± 0.67 kg/m3
318.15 K, x1 = 0.7766
  mass density: 966.82 ± 0.82 kg/m3
318.15 K, x1 = 0.8679
  mass density: 964.92 ± 0.93 kg/m3
318.15 K, x1 = 0.8977
  mass density: 964.34 ± 0.97 kg/m3
318.15 K, x1 = 0.9699
  mass density: 962.91 ± 1.1 kg/m3
